PMC10574185, “Encapsulation and Biological Activity of Hesperetin Derivatives with HP-β-CD” (Molecules, 2023)
Converted amounts (≈) assume the structure as drawn. Like-named read-outs stand apart in the source and are kept apart here.

What was measured:
[1] = DPPH assay (antioxidant activity); details: concentration 0.1 mg/mL, mean ± SD
Description: (§1) To evaluate the antioxidant ability of the tested systems, antioxidant analysis was performed. Antioxidants can scavenge hydroxyl radicals in two ways: by reacting directly with hydroxyl radicals (DPPH^•, ABTS^•+) or indirectly inhibiting the formation of hydroxyl radicals by chelating metal ions involved in the production of hydroxyl radicals. The antioxidant activity of the systems studied was investigated by using DPPH^• scavenging, ABTS^•+ scavenging ability, and Fe^2+-chelating ability. In this study, the antioxidant activity of pure hesperetin and its Schiff bases (HHSB, HIN, and HTSC) and HP-β-CD complexes were compared, and the positive control was Trolox.
The detailed methodology of DPPH assay was described in the previous paper by Sykuła et al..

[2] = Phase solubility studies with HP-β-CD; type: physicochemical; details: for solubility at 60 min: thermodynamic from solid
Description: The purpose of this part of the study was to determine the solubility of compounds of hesperetin and its Schiff bases (HHSB, HIN, and HTSC) in aqueous solution at different pHs and temperatures, and the effect of their inclusion in modified HP-β-CD on the aqueous solubility of these compounds at different pH values.
The effect of the presence of HP-β-CD at different temperatures (25, 37, and 60 °C) was determined by developing phase solubility diagrams.
In accordance with the methodology described in Section 3.4, excess amounts of each tested substance were added to aqueous solution with increasing concentration of HP-β-CD up to 16 mM, respectively, in 2 mL of 100 mM sodium acetate buffer (pH 3.6), 100 mM sodium phosphate buffer (pH 6.5) or 100 mM sodium borate buffer (pH 8.5).
Phase solubility studies were conducted according to [64] with some modifications. Excess amounts of each tested substance were added to aqueous solution with increasing concentration of HP-β-CD up to 16 mM, in 2 mL of 100 mM sodium acetate buffer (pH 3.6), 100 mM sodium phosphate buffer (pH 6.5), or 100 mM sodium borate buffer (pH 8.5), respectively. The samples were maintained in an ultrasonic bath at various temperatures (25, 37, and 60 °C) for 60 min to reach equilibrium. The aqueous solutions were then filtered through 0.45 µm acetate cellulose (CA) membrane filter and diluted. The tested compound concentration on each clear filtrate was spectrophotometrically determined by measuring at their wavelength maximum.
The complexation constant (Kc) between studied molecules and HP-β-CD was determined by using Equation (1):(1) Kc=slope/S0 (1−slope) where S0 means the water solubility of the studied substance, and “slope” means the slope of the phase solubility diagram.
Complexation efficiency was calculated from the slope of the phase solubility diagram using Equation (2):(2) CE=S0×Kc=slope/1−slope
The CE was also applied to evaluate the molar ratio in solution of tested systems using Equation (3):(3) Compound:HP−β−CD=1:(1+1/CE)

[3] = FRAP assay (ferric-ion reducing antioxidant power); details: mean ± SD
Description: as §1
The antioxidant capacity determined by the FRAP assay (the ability of plasma to reduce iron) was carried out using a modification of the FRAP assay. The FRAP reagent consisted of the following solutions: 300 mM acetate, pH 3.6 glacial acetic acid buffer, 20 mM ferric chloride (FeCl3×6H2O), and 10 mM 2,4,6-tripyridyl-S-triazine (TPTZ) prepared in 40 mM HCl. The aforementioned solutions were mixed together in a ratio of 10:1:1 (v/v/v). The FRAP assay consisted of adding 15 µL of sample to 1.98 mL of reagent and incubating the mixture at 37 °C for 4 min. Absorbance measurement was recorded at 593 nm against a blank. Total antioxidant capacity was estimated relative to a standard of known FRAP concentration, ferrous sulfate.

[4] = system: Staphylococcus aureus ATCC 25923; experiment: Minimal inhibition concentration (dilution + diffusion-well); type: cell-based; details: ATCC25923, 37 °C, 18 h
Description: The MIC was performed for compounds and strains sensitive to their action in the antagonistic test. Minimum inhibitory concentration was determined by combining the dilution method with the diffusion-well method. Test compounds at a concentration of 500 μM were prepared in 5% (w/w) DMSO. Surface layer of microorganisms, against which antagonistic activity was noted, were prepared in the same way as for the antagonistic test. Then, two-fold sequential dilutions of the test compounds in the range of 500 µM to 62.5 µM were prepared. Wells with a diameter of 8 mm cut in the Mueller–Hinton Agar (Merck, Darmstadt, Germany) with the test strain were added with 50 µL of the prepared dilutions, which corresponded to the following concentrations of the tested compounds: […], 1.25 mM, 0.625 mM, and […]. Petri dishes prepared in this way were incubated at 37 °C for 18 h. After a given time, the MIC value was read. The MIC concentration expressed in µM was the first concentration of the tested compounds at which growth inhibition of the test strain was observed.

[5] = ABTS^•+ radical cation decolorization assay; details: concentration 0.1 mg/mL, mean ± SD
Description: as §1
Antioxidant activity using ABTS^•+ cation radical scavenging was determined according to a modified method. ABTS solution (2.5 mM) was mixed with 1.0 mM potassium persulfate solution and left at room temperature in the dark for 12-24 h. After this time, the absorbance of the finished ABTS^•+ solution was corrected with ethanol to 0.70 ± 0.02 at 745 nm. A total of 100 µL of the sample was reacted for 5 min with 2 mL of ABTS^•+ solution (A745 nm = 0.70 ± 0.02). The absorbance value of the reaction mixture was measured at 745 nm. […] Scavenging activity (%) = [1 − (Asample − Ablank)/Acontrol] × 100%(4) where Acontrol is the absorbance value of the control (ABTS^•+ solution with water), Ablank is the absorbance value of samples mixed with anhydrous ethanol, and Asample is the absorbance value of the added test sample to ABTS^•+ solution at 745 nm, respectively.

`COc1ccc(C2C/C(=N\NC(=O)c3ccccc3)c3c(O)cc(O)cc3O2)cc1O` (racemic) [HHSB] showed a DPPH antioxidant activity [1] of 44.29 ± 4.5%, a CE complexation efficiency ([2]; 25 °C, pH 3.6, with HP-β-CD) of 1.4% and a Kc complexation constant ([2]; 25 °C, pH 3.6, with HP-β-CD) of 341 ± 79 M⁻¹. The CE complexation efficiency ([2]; 25 °C, pH 6.5, with HP-β-CD) was 0.7%, the Kc complexation constant ([2]; 25 °C, pH 6.5, with HP-β-CD) was 150 ± 21 M⁻¹ and the CE complexation efficiency ([2]; 25 °C, pH 8.5, with HP-β-CD) was 0.7%. The Kc complexation constant ([2]; 25 °C, pH 8.5, with HP-β-CD) was 150 ± 19 M⁻¹, the CE complexation efficiency ([2]; 37 °C, pH 3.6, with HP-β-CD) was 1.1% and the Kc complexation constant ([2]; 37 °C, pH 3.6, with HP-β-CD) was 226 ± 92 M⁻¹. The CE complexation efficiency ([2]; 37 °C, pH 6.5, with HP-β-CD) was 2.5%, the Kc complexation constant ([2]; 37 °C, pH 6.5, with HP-β-CD) was 618 ± 36 M⁻¹ and the CE complexation efficiency ([2]; 37 °C, pH 8.5, with HP-β-CD) was 0.15%. The Kc complexation constant ([2]; 37 °C, pH 8.5, with HP-β-CD) was 100 ± 34 M⁻¹, the CE complexation efficiency ([2]; 60 °C, pH 3.6, with HP-β-CD) was 0.9% and the Kc complexation constant ([2]; 60 °C, pH 3.6, with HP-β-CD) was 250 ± 20 M⁻¹. The CE complexation efficiency ([2]; 60 °C, pH 6.5, with HP-β-CD) was 1.8%, the Kc complexation constant ([2]; 60 °C, pH 6.5, with HP-β-CD) was 155 ± 4 M⁻¹ and the “increase of solubility with HP-β-CD” value ([2]; 60 °C, pH 8.5) was “five-fold”. It also gave a CE complexation efficiency ([2]; 60 °C, pH 8.5, with HP-β-CD) of 7%, a Kc complexation constant ([2]; 60 °C, pH 8.5, with HP-β-CD) of 728 ± 82 M⁻¹ and a solubility at 60 min ([2]; aqueous buffer, 25 °C, pH 3.6 sodium acetate buffer, without cyclodextrin, read-out: solubility without HP-β-CD (value in brackets) (converted)) of 18 µM (≈ 7.57 µg/mL). For the same compound, the solubility at 60 min ([2]; aqueous buffer, 25 °C, pH 6.5 sodium phosphate buffer, without cyclodextrin, read-out: solubility without HP-β-CD (value in brackets) (converted)) was 25 µM (≈ 10.5 µg/mL), the solubility at 60 min ([2]; aqueous buffer, 25 °C, pH 8.5 sodium borate buffer, without cyclodextrin, read-out: solubility without HP-β-CD (value in brackets) (converted)) was 25 µM (≈ 10.5 µg/mL) and the solubility at 60 min ([2]; aqueous buffer, 37 °C, pH 3.6 sodium acetate buffer, without cyclodextrin, read-out: solubility without HP-β-CD (value in brackets) (converted)) was 20 µM (≈ 8.41 µg/mL). It also gave a solubility at 60 min ([2]; aqueous buffer, 37 °C, pH 6.5 sodium phosphate buffer, without cyclodextrin, read-out: solubility without HP-β-CD (value in brackets) (converted)) of 5 µM (≈ 2.1 µg/mL), a solubility at 60 min ([2]; aqueous buffer, 37 °C, pH 8.5 sodium borate buffer, without cyclodextrin, read-out: solubility without HP-β-CD (value in brackets) (converted)) of 5 µM (≈ 2.1 µg/mL) and a solubility at 60 min ([2]; aqueous buffer, 60 °C, pH 3.6 sodium acetate buffer, without cyclodextrin, read-out: solubility without HP-β-CD (value in brackets) (converted)) of 12 µM (≈ 5.05 µg/mL). The solubility at 60 min ([2]; aqueous buffer, 60 °C, pH 6.5 sodium phosphate buffer, without cyclodextrin, read-out: solubility without HP-β-CD (value in brackets) (converted)) was 27 µM (≈ 11.4 µg/mL), the solubility at 60 min ([2]; aqueous buffer, 60 °C, pH 8.5 sodium borate buffer, without cyclodextrin, read-out: solubility without HP-β-CD (value in brackets) (converted)) was 18 µM (≈ 7.57 µg/mL) and the solubility at 60 min ([2]; 25 °C, pH 3.6 sodium acetate buffer, with HP-β-CD, read-out: S0 (solubility with HP-β-CD)) was 41 ± 21 µM (≈ 17.2 µg/mL). It also gave a solubility at 60 min ([2]; 25 °C, pH 6.5 sodium phosphate buffer, with HP-β-CD, read-out: S0 (solubility with HP-β-CD)) of 45 ± 5 µM (≈ 18.9 µg/mL), a solubility at 60 min ([2]; 25 °C, pH 8.5 sodium borate buffer, with HP-β-CD, read-out: S0 (solubility with HP-β-CD)) of 45 ± 5 µM (≈ 18.9 µg/mL) and a solubility at 60 min ([2]; 37 °C, pH 3.6 sodium acetate buffer, with HP-β-CD, read-out: S0 (solubility with HP-β-CD)) of 50 ± 10 µM (≈ 21 µg/mL). The solubility at 60 min ([2]; 37 °C, pH 6.5 sodium phosphate buffer, with HP-β-CD, read-out: S0 (solubility with HP-β-CD)) was 41 ± 23 µM (≈ 17.2 µg/mL), the solubility at 60 min ([2]; 37 °C, pH 8.5 sodium borate buffer, with HP-β-CD, read-out: S0 (solubility with HP-β-CD)) was 15 ± 6.1 µM (≈ 6.31 µg/mL) and the solubility at 60 min ([2]; 60 °C, pH 3.6 sodium acetate buffer, with HP-β-CD, read-out: S0 (solubility with HP-β-CD)) was 36 ± 14 µM (≈ 15.1 µg/mL). The solubility at 60 min ([2]; 60 °C, pH 6.5 sodium phosphate buffer, with HP-β-CD, read-out: S0 (solubility with HP-β-CD)) was 115 ± 53 µM (≈ 48.3 µg/mL), the solubility at 60 min ([2]; 60 °C, pH 8.5 sodium borate buffer, with HP-β-CD, read-out: S0 (solubility with HP-β-CD)) was 96 ± 42 µM (≈ 40.4 µg/mL) and the FRAP antioxidant activity [3] was 0.000005 ± 0.00005 mmolFe(II)/L. The MIC [4] was 2.5 µM and the “ABTS^•+ antioxidant activity” value [5] was 98.11 ± 5.0%.
